{"source": "patent US11360104B2", "about": "“Microbial-based biosensors” (TRUSTEES OF BOSTON UNIVERSITY, priority 2017, dated 2022)", "key": {"[1]": {"assay": "QD-FRET sensor progesterone titration in HEPES 1×", "assay_type": "biochemical", "description": "(§1) Fluorescent spectra were analyzed using MATLAB (Mathworks) and were fitted with a sum of 2 Gaussians (D=QD: FWHM=27 nm, λmax=607 nm; A=DNA-Cy5: FWHM=40 nm, λmax=669 nm). The area of each Gaussian was extracted and FD and FA are obtained respectively for the fluorescence of QD (donor) and Cy5 (acceptor).\nRaw dose-response curves were obtained by plotting FA/FD as a function of the steroid concentration. Sensor output is the normalization of the fluorescent spectra of the donor and acceptor according to the following equation:\n[formula] Where F=FA/FD, Fi is for [PRG]=i, Fmin stands for the average on 3 experiments of F for [PRG]=0 nM and Fmax stands for the average on 3 experiments of F for [PRG]=10 uM.\nNon-normalized dose-response were fitted with Origin Pro 8 software with the non-linear equation:\nMathematically, the limit of detection in the signal domain (LD) is given by:LD=meanblank−3.3×σtest LD=meanblank−3.3×σtest where meanblank is the mean signal for a reagent blank and σtest is the pool standard deviation for all test samples in the dilution series, calculated as[9]:\nThen the Limit of detection (LOD) is calculated using the parameters of the fit with the non-linear equation (XX) for y=LD:\n(§2) Description for a typical experiment, using a molar ratio of QD/TF/DNA=1/4/18. QDs in (275 uL, 0.15 uM in HEPES 1×, pH 7.6 with 1% BSA) were mixed with AIY-his6 (275 uL, 0.6 uM in HEPES 1× pH 7.6) at room temperature for 45 min. Then, the double-stranded DNA labelled with a Cy5 fluorescent probe at the 3′ and 5′ ends (275 uL, 2.7 uM in HEPES 1× pH 7.6) was added to the mixture. After 30 min, 220 uL of HEPES 1× pH 7.5 and 330 uL of 5× binding buffer (25 mM MgCl2, 25% glycerol, and 250 mg/L Invitrogen™ UltraPure™ Salmon Sperm DNA in Tris-HCl 0.1M) were added and the mixture is left 15 more min at RT.\n(§3) 50 uL of the sensor (QD/TF/DNA) was then splitted in 3×9 centrifuge tubes to which 10 uL of progesterone at the desired concentration is added. As such, the final concentration of QD/TF/DNA for the measurements is 25 nM/100 nM/450 nM. A 384 well plate was filled with 60 uL of each solution. The fluorescence intensity was monitored on a spectrofluorimeter from 535 nm to 800 nm exciting at 400 nm, equipped with a 450 nm long-pass filter in emission."}, "[2]": {"biological_target": "PinR (Nocardioides simplex (Pimelobacter simplex), UniProt A0A0A1DUF2)", "sequence (A0A0A1DUF2 entry or part of it)": "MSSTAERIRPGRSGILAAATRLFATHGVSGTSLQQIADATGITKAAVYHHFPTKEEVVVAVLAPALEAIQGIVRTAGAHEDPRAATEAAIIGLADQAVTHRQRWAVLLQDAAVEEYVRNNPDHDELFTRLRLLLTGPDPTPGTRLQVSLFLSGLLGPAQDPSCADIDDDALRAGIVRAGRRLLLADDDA", "assay": "Cross-reactivity assay of steroids using sensor 3", "assay_type": "biochemical", "conditions": "sensor 3, HEPES 1×, 0 to 10 uM of steroids", "description": "The cross-reactivity of progesterone regarding the different steroids was calculated with the following equation:\nDescription for a typical experiment, using a molar ratio of QD/TF/DNA=1/4/18.\nas §3, with “As such, the final concentration of QD/TF/DNA for the measurements is 25 nM/100 nM/450 nM.” left out"}, "[3]": {"system": "Pimelobacter simplex PinR (AIY20223.2; SEQ ID NO: 1), his-tagged (AIY-his6)", "assay": "QD-FRET steroid sensor (QD-PinR + DNA-Cy5), steroid-induced TF-DNA unbinding", "assay_type": "biochemical", "conditions": "sensor 3 in HEPES 1×; 0 to 10 uM steroid", "description": "as §1\nRaw dose-response curves were obtained by plotting FA/FD as a function of the steroid concentration. Sensor output is the normalization of the fluorescent spectra of the donor and acceptor according to the following equation: […]\nNon-normalized dose-response were fitted with Origin Pro 8 software with the non-linear equation: […]\nThe cross-reactivity of progesterone regarding the different steroids was calculated with the following equation: […]\nCdSe/CdS/ZnS QDs were coated with a zwitterionic polymer bearing histamine anchoring functions (P1, SI). Once the hydrophobic QDs were transferred into H2O using a biphasic ligand exchange, his-tagged TFs were self-assembled on the QD surface to produce the QD-TF. Addition of the double stranded, Cy5-labeled TF-binding sequence completed probe assembly as the oligo binds to the TF in the absence of progesterone (PRG). The molar ratios of the QD, TF, and DNA in the sensor were controlled through the stoichiometric ratios of the mixed parts.\nTwo fluorescent spectra were recorded, one from the QDs and one from the Cy5 due to the FRET.\nFirst, the DNA1 (most binding sequence) has been used to build the first biosensor, named sensor 1. For this sensor, a ratio of QD/TF/DNA of 1/4/18 was chosen. […] In order to homogenize the fluorescent signals in between batches and different sensor variations, FA/FD was normalized to give the signal output. Signal output is then plotted against PRG concentration to give a dose-response curve (FIG. 9C) This curve was fitted with the non-linear equation XX to obtain the half-maximal inhibitory concentration (IC50) (Table 13).\nas §2, §3"}, "[4]": {"system": "Pimelobacter simplex", "assay": "Solvent and steroid exposure growth curves", "excerpt": "In order to identify steroid binding Transcription Factors, a whole transcriptome RNA sequencing (RNA-Seq) screen was developed (FIG. 7). The growth of Pimelobacter simplex bacteria was profiled with respect to the starting inoculation density, solvent toxicity, and the addition of steroids (FIG. 16). […] P. simplex bacteria were screened against the steroid solvents ethanol (EtOH) and dimethyl sulfoxide (DMSO). […] Steroid growth curves were similarly performed using a starting OD of 0.005 and constant solvent dosing with titrations of steroids. […] P. simplex bacteria were grown in the presence of 700 μM testosterone, 21.88 μM progesterone, 87.50 μM estrone, 21.88 μM 17β-estradiol, 21.88 μM hydrocortisone, or 175.00 μM aldosterone concentrations were selected for comparison.\nIn order to properly determine the doubling time of the strain, growth curves were performed. All growth curves were done in 100 μL per well volumes in 96 well flat clear bottom black polystyrene TC-treated microplates which were individually wrapped with a lid and sterile (Corning #3603). Measurements were done by an Infinite M200 Pro (TECAN) spectrophotometer at the temperature suited for P. simplex. Readings were performed over 96 cycles of 15 minutes each at 600 nm absorbance with 25 flashes in a 3×3 (XY-Line) type reads per well. In between reads there was orbital shaking at 150 rpm frequency for a total of 10 minutes. In order to characterize the growth alone, a ½ serial dilution of 9 concentrations from 0.5-0.0020 OD600 nm were prepared in the respective media. Then each concentration was measured as previously described using a microplate reader (TECAN) and normalized against a media background control in technical triplicate. Afterward, an appropriate starting concentration of cells was chosen with a substantially long lag-phase, linear log phase, and a plateau of stationary-phase.\nOnce an appropriate starting cell concentration was chosen, a secondary growth curve was performed to test the toxicity levels of the solvents used to dissolve steroids of interest. Since the steroids used are heavily hydrophobic, they often need to be dissolved in organic solvents such as DMSO or ethanol which are toxic to bacteria at high concentrations. P. simplex was incubated under microplate reader conditions previously mentioned at a starting OD determined by the first growth curve with DMSO, ethanol, or H2O at ½ serial dilutions for a total of eight concentrations (50-0.39%) tested in technical triplicate. Two controls were included per solvent; a positive control without solvent and a media control which allowed for appropriate normalization. Solvent exposure growth curves allowed for choosing the maximum amount of solvent concentration that strains would sustain while maintaining relative viability in order to determine a range of steroid concentrations which could be used.\nA tertiary growth curve was performed to test the toxicity levels of steroid specific to P. simplex. The strain was incubated under microplate reader conditions previously mentioned at a starting OD determined by the first growth curve and the highest solvent concentration corresponding to the steroid of interest with steroid at ½ serial dilutions for a total of seven concentrations tested in singlet. Testosterone, progesterone, 17β-estradiol, hydrocortisone, and aldosterone were all dissolved in ethanol while estrone was dissolved in DMSO. Three controls were included for each steroid; a positive control with the highest tolerable solvent concentration (%), a positive control with media, and a media control which allowed for normalization. Steroid exposure growth curves allowed for choosing the maximum amount of steroid concentration that P. simplex would sustain while maintaining relative viability."}}, "note": "Where two headings read alike, the source gives them in different places. {Cy5} = Cy5 fluorescent dye attached at the strand end"}
{"compound": "DNA1: Cy5-labelled PinR binding probe 5Cy5-GCCTAACTAGCCGTTCGGCTAGTTATTC-3Cy5 (SEQ ID NO: 24) (DNA, 5' {Cy5}, 3' {Cy5}, backbone and methylation of C not given here; hybridized with complementary strand to form double-stranded fluorescent oligo)", "values": [{"measurement": "[Pro]min", "setting": "[1]; QD/TF/DNA=1/4/18, [QD]=25 nM", "result": 0.073, "unit": "µM"}]}
{"compound": "DNA4: Cy5-labelled PinR binding probe 5Cy5-CCTTAACTAGCCGTTCTGTTAGTTATT C-3Cy5 (SEQ ID NO: 30) (DNA CCTTAACTAGCCGTTCTGTTAGTTATTC; DNA, 5' {Cy5}, 3' {Cy5}, backbone and methylation of C not given here; hybridized with complementary strand to form double-stranded fluorescent oligo)", "values": [{"measurement": "[Pro]min", "setting": "[1]; DNA 4, QD/TF/DNA 1/1/4", "result": 0.024, "unit": "µM"}, {"measurement": "[Pro]min", "setting": "[1]; DNA 4, QD/TF/DNA 1/1/18", "result": 0.017, "unit": "µM"}, {"measurement": "[Pro]min", "setting": "[1]; DNA 4, QD/TF/DNA 1/4/9", "result": 0.066, "unit": "µM"}, {"measurement": "[Pro]min", "setting": "[1]; DNA 4, QD/TF/DNA 1/4/18", "result": 0.044, "unit": "µM"}, {"measurement": "[Pro]min", "setting": "[1]; DNA 4, QD/TF/DNA 1/16/8", "result": 0.190, "unit": "µM"}, {"measurement": "[Pro]min", "setting": "[1]; QD/TF/DNA=1/4/18, [QD]=25 nM", "result": 0.044, "unit": "µM"}]}
{"compound": "C[C@H](O)[C@H]1CC[C@H]2[C@@H]3CC[C@@H]4C[C@H](O[C@@H]5O[C@H](C(=O)O)[C@@H](O)[C@H](O)[C@H]5O)CC[C@]4(C)[C@H]3CC[C@]12C", "note": "[PRE-glu, 5β-Pregnane-3α,20-α-diol glucuronide]", "values": [{"measurement": "cross-reactivity", "setting": "[2]", "result": "No cross-reactivity"}, {"measurement": "cross-reactivity (in words)", "setting": "[3]", "result": "No cross-reactivity was observed"}]}
{"compound": "DNA3: Cy5-labelled PinR binding probe 5Cy5-GCCTAACTAGCCGTTCGGCAAGTAATTC-3Cy5 (SEQ ID NO: 28) (DNA, 5' {Cy5}, 3' {Cy5}, backbone and methylation of C not given here; hybridized with complementary strand to form double-stranded fluorescent oligo)", "values": [{"measurement": "[Pro]min", "setting": "[1]; DNA 3, QD/TF/DNA 1/1/2", "result": 0.040, "unit": "µM"}, {"measurement": "[Pro]min", "setting": "[1]; DNA 3, QD/TF/DNA 1/1/18", "result": 0.072, "unit": "µM"}, {"measurement": "[Pro]min", "setting": "[1]; DNA 3, QD/TF/DNA 1/2/2", "result": 0.053, "unit": "µM"}, {"measurement": "[Pro]min", "setting": "[1]; DNA 3, QD/TF/DNA 1/2/18", "result": 0.070, "unit": "µM"}, {"measurement": "[Pro]min", "setting": "[1]; DNA 3, QD/TF/DNA 1/4/2", "result": 0.050, "unit": "µM"}, {"measurement": "[Pro]min", "setting": "[1]; DNA 3, QD/TF/DNA 1/4/18", "result": 0.040, "unit": "µM"}, {"measurement": "[Pro]min", "setting": "[1]; DNA 3, QD/TF/DNA 1/10/18", "result": 0.065, "unit": "µM"}, {"measurement": "[Pro]min", "setting": "[1]; DNA 3, QD/TF/DNA 1/16/18", "result": 0.075, "unit": "µM"}, {"measurement": "[Pro]min", "setting": "[1]; QD/TF/DNA=1/4/18, [QD]=25 nM", "result": 0.040, "unit": "µM"}]}
{"compound": "CC(C)CCC[C@@H](C)[C@H]1CC[C@H]2[C@@H]3CC=C4C[C@@H](O)CC[C@]4(C)[C@H]3CC[C@]12C", "note": "[CHL, Cholesterol]", "values": [{"measurement": "cross-reactivity", "setting": "[2]", "result": "No cross-reactivity"}, {"measurement": "cross-reactivity (in words)", "setting": "[3]", "result": "No cross-reactivity was observed"}]}
{"compound": "DNA2: Cy5-labelled PinR binding probe 5Cy5-GCCTAACTAGCCGATCGGCTAGTCATTC-3Cy5 (SEQ ID NO: 26) (DNA, 5' {Cy5}, 3' {Cy5}, backbone and methylation of C not given here; hybridized with complementary strand to form double-stranded fluorescent oligo)", "values": [{"measurement": "[Pro]min", "setting": "[1]; QD/TF/DNA=1/4/18, [QD]=25 nM", "result": 0.051, "unit": "µM"}]}
{"compound": "C[C@H](O)[C@H]1CC[C@H]2[C@@H]3CC[C@@H]4C[C@H](O)CC[C@]4(C)[C@H]3CC[C@]12C", "note": "[PRE, 5β-Pregnane-3α,20-α-diol]", "values": [{"measurement": "cross-reactivity", "setting": "[2]", "result": "No cross-reactivity"}, {"measurement": "cross-reactivity (in words)", "setting": "[3]", "result": "No cross-reactivity was observed"}]}
{"compound": "C[S+](C)[O-]", "note": "[DMSO, dimethyl sulfoxide]", "values": [{"measurement": "highest solvent concentration that did not produce a physiological change in growth", "setting": "[4]; P. simplex vs solvent-free control", "result": 0.35, "unit": "% by volume"}]}
{"compound": "CCO", "note": "[EtOH, ethanol]", "values": [{"measurement": "highest solvent concentration that did not produce a physiological change in growth", "setting": "[4]", "result": 0.70, "unit": "% by volume"}]}
